This is an account of results in patent US11547690B1, “Chemotherapeutic self-nanoemulsifying drug delivery systems and uses thereof” (KING ABDULAZIZ UNIVERSITY, priority 2022, dated 2023).

For data set [1] the following is noted: cited from earlier work.
Data set [2] in a line: Equilibrium solubility evaluation in lipids and cosolvents. The data set is classed as physicochemical. As to conditions: for solubility at 72 h: 37 °C, thermodynamic from solid, read-out: solubility of PTX. As to the method: Solubility evaluation of PTX was carried out in various oils and cosolvents till attaining equilibrium by addition of excess quantity of drug to 1 gm of each of the excipient in culture vials and mixed well using vortex mixer (Remi Instruments, Mumbai, India). The sealed vials were kept on water bath shaker at 37±0.5° C. for 72 h for 150 strokes per minute. After specified time period, the samples were centrifuged at 3,000 rpm (402.5×g) for 15 minutes using a laboratory centrifuge (Remi Instruments, Mumbai, India). Drug was extracted in acetonitrile and supernatant fraction was filtered through 0.45 μm membrane filter, suitably diluted and analyzed by previously developed HPLC method.

SMILES strings stand for the structures. In brackets after ≈: the same amount, converted by molar mass. Where two headings read alike, the source gives them in different places.

Regarding `CC(=O)O[C@H]1C(=O)[C@@]2(C)[C@H]([C@H](OC(=O)c3ccccc3)[C@]3(O)C[C@H](OC(=O)[C@H](O)[C@@H](NC(=O)c4ccccc4)c4ccccc4)C(C)=C1C3(C)C)[C@]1(OC(C)=O)CO[C@@H]1C[C@@H]2O` [PTX, Paclitaxel], the oral bioavailability in data set [1] was 5%. The solubility at 72 h worked out at 78 mg/mL (≈ 91.3 mM) in data set [2] (aqueous with cosolvent or surfactant or cyclodextrin, in Tween® 80, 37±0.5° C., 72 h); 106 mg/mL (≈ 124 mM) in data set [2] (aqueous with cosolvent or surfactant or cyclodextrin, in surfactin); 235 mg/mL (≈ 275 mM) in data set [2] (organic solvent or mixture, in Transcutol® HP, 37±0.5° C., 72 h). In addition, the “solubility of PTX” value in data set [2] (in 1:1 ratio mixture of ethyl oleate:Plurol® Oleique, 37±0.5° C., 72 h) came out at 198.5 mg/mL.

What is called solubility is the concentration that dissolves in the medium under given conditions.
